Experimental data as given in patent publication US20050153937A1, “Desensitization of compliment activation using monocyte/macrophage inhibitory compounds” (priority 2003, published 2005).

System: complement activation-related acute hypersensitivity (CARPA)
Details: pig, in vivo
From the text: Adolescent (2040 kg) Yorkshire pigs of both genders are sedated with i.m. ketamine (Ketalar) and then anesthetized with halothane or isoflurane via nose cone. The trachea is intubated to allow mechanical ventilation with an anesthesia machine, using 1-2.5% halothane or isoflurane. A pulmonary artery catheter equipped with thermodilution-based continuous cardiac output detector is advanced via the right internal jugular vein through the right atrium into the pulmonary artery to measure pulmonary arterial pressure (PAP) and cardiac output (CO). Another catheter is inserted into the right femoral artery and advanced into the proximal aorta for blood sampling and to measure systemic arterial pressure (SAP). Blood pressure values and 2-3 leads of the electrocardiogram (ECG) are obtained continually.
The CARPA-activating compounds used in the following experiments are i) Doxil containing 2 mg/ml doxorubicin HCl and 16 mg/ml lipid (phospholipid concentration: 13.3 mM, 150 μg doxorubicin/μmol phospholipid), ii) multilamellar vesicles (MLV) consisting of dimyristoyl phosphatidylcholine (DMPC), dimyristoyl phosphatidylglycerol (DMPG), and cholesterol at a 45:5:50 ratio, and iii) zymosan. […]

Zymosan
reactions to second series of CARPA-activator injections compared with first administration: substantially identical | time until all physiologic and blood measures return to baseline after injection (iv): ≤ 30 min
